Test [1] concerns cucumber powdery mildew. Put plainly: Field trial, cucumber powdery mildew. It counts as in vivo. As to conditions: sprayed twice. The method, then:
I. Cucumber Powdery Mildew Test Method:
Spray method: Stein and leaf spray (Applicator: Xinkangda lithium battery electric sprayer).
Test crop: cucumber (cultivars: Tianjiao7)
The test was carried out in Shenyang, the test field was loam with rich organic matters and normal management of fertilizer and water, and no other pesticide was applied during the test.
The arrangement of the test plot was random block permutation; the area of the test plot: 15 m^2; repeat times: 3 times; spray time and frequency: period between Sep. 28, 2018 and Oct. 11, 2018, twice. Spray dosage: each treatment was repeated 3 times, the total water consumption was 8 L. No other pesticide was applied during the test. […] 15-20 days after the second treatment, the incidence of disease spots in each plot was investigated.
The incidence of disease spots in each plot was investigated by randomly selecting 4 samples/plot and 2 plants/samples, all leaves/plant, the incidence of the whole plant was recorded by counting the number of disease leaves and determining the incidence grade.
Grading standard (in units of leaves):
Grade 0: no leaf-spot area;
Grade 1: the ratio of leaf-spot area to leaf area is less than 5%;
Grade 3: the ratio of leaf-spot area to leaf area is between 6-10%;
Grade 5: the ratio of leaf-spot area to leaf area is between 11-20%;
Grade 7: the ratio of leaf-spot area to leaf area is between 21-40%;
Grade 9: the ratio of leaf-spot area to leaf area is more than 40%;
According to the relevant content of the “Guidelines for the field efficacy trials of pesticides of the People's Republic of China (PRC)”, the disease index was calculated according to the grading standard, and the control effect in a unit of % was calculated based on the disease index, and the test data of significance analysis was performed by using DPS evaluation system (DMRT).

Test [2] deals with cucumber powdery mildew. Nature of the test: Greenhouse pot test, cucumber powdery mildew. As to conditions: Cucumis sativus, 192 h, greenhouse pot, read-out: Control effect (%) Cucumber powdery mildew. It counts as in vivo. In outline: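 Compounds formulated as 5% EC and sprayed onto true-leaf cucumber seedlings in greenhouse pots; 24 h later, spray-inoculated with about 100,000/mL powdery mildew spores. Kept at 21-23° C. and graded after 8 days. Control effect (%) derived from disease index relative to untreated control.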

Experimental findings from patent US11548855B2, “Pyrazole amide compound and application thereof, and fungicide” (Shandong United Pesticide Industry Co. Ltd., priority 2017, dated 2023) are described below.

`Cn1cc(C(=O)Nc2ccccc2Oc2ccc(C(F)(F)F)cc2C(F)(F)F)c(C(F)F)n1` [Compound 1]: the “Control effect (%) Cucumber powdery mildew” value with cucumber powdery mildew [1] (100 mg/L) is 90.0%; with cucumber powdery mildew [1] (200 mg/L) it was 96.5%. The pest or weed control at 1 µg/mL in the test with cucumber powdery mildew [2] (1 mg/L) stood at 90%. Moreover, the pest or weed control at 1.5625 µg/mL with cucumber powdery mildew [2] (1.5625 mg/L) came to 95%. Also, the pest or weed control at 2.5 µg/mL with cucumber powdery mildew [2] (2.5 mg/L) turned out to be 98%. The pest or weed control at 3.125 µg/mL in the test with cucumber powdery mildew [2] (3.1250 mg/L) was 100%. Further, the pest or weed control at 6.25 µg/mL in the test on cucumber powdery mildew [2] (6.25 mg/L) was determined as 100%. The pest or weed control at 10 µg/mL with cucumber powdery mildew [2] (10 mg/L) is 100%. Besides, the pest or weed control at 25 µg/mL in the test on cucumber powdery mildew [2] (25 mg/L) stood at 100%. In the test on cucumber powdery mildew [2] (100 mg/L), the pest or weed control at 100 µg/mL was 100%.
